Assay results published in the NIST ThermoML archive (doi:10.1016/j.jct.2008.05.001).
Numbers after ± are expanded uncertainties.

Details: 293 K, 101.33 kPa, Pycnometric method

Structure (SMILES) | mass density (Liquid) [kg/m3] | mass density (Crystal) [kg/m3]
CCC1COC(=O)O1 (configuration not stated) [1,2-butylene carbonate] | 1140 ± 10 | 
O=C1OCCO1 [ethylene carbonate] |  | 1320 ± 10
